Legend:
Type in all cases: biochemical
FLAG-tagged PRMT1 = target: T1, FLAG-tagged PRMT1 (Rattus norvegicus, UniProt Q63009); assay: Fluorescence-based in vitro PRMT assay (F-PRMT assay), PRMT1; conditions: for Experimental result (PRMT1): vs solvent control = 100%
T1 construct: Full-length FLAG-tagged PRMT protein; made in house; host or cells: Sf9 insect cells (baculovirus)

FLAG-tagged PRMT6 = target: T2, FLAG-tagged PRMT6 (Homo sapiens, UniProt Q96LA8); assay: Fluorescence-based in vitro PRMT assay (F-PRMT assay), PRMT6; conditions: for Experimental result (PRMT6): vs solvent control = 100%; for Efficacy ±Δ% (PRMT6): mean % difference of activity vs solvent control (100%), - inhibition, + activation
T2 construct: The complete ORFs of human PRMT3 and PRMT6 were inserted; made in house; host or cells: Sf9 insect cells (baculovirus)
T2 sequence (Q96LA8 whole entry): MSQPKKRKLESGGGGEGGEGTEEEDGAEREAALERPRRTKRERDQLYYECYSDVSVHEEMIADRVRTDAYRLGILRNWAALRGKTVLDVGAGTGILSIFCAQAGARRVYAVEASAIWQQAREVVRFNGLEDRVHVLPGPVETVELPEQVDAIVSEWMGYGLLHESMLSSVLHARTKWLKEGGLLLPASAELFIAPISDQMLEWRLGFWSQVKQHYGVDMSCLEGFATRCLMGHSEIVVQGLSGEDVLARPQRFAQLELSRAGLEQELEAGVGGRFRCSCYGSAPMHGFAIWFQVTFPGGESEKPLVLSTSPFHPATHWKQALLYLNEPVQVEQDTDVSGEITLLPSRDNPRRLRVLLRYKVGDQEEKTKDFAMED
From the text: (§1) To evaluate the effects of the selected candidate molecules on the catalytic activity of type I enzymes, we employed a quantitative fluorescence-based in vitro PRMT activity (F-PRMT) assay using recombinant FLAG-tagged PRMT proteins expressed and affinity-purified from baculovirus-infected Sf9 cells (SI Figure S1, SI Figure S2A).
(§2) Human cell lines (PaTu8988T, PANC-1) were obtained from ATCC (American Type Culture Collection) and cultured in DMEM supplemented with 10% fetal calf serum (FCS, Gibco/BRL), 1% penicillin/streptomycin at 37 °C and 5% CO2. […] For PRMT1 inhibition, cells were treated with type I PRMT inhibitor MS023 hydrochloride (Biomol). For induction of genotoxic stress, cells were treated with gemcitabine (LC Laboratories). […] The following plasmids were used: pFASTBAC-FLAG-rat PRMT1, pFASTBAC-FLAG-mouse PRMT4, and pGEX-GAR. The complete ORFs of human PRMT3 and PRMT6 were inserted into the pFASTBAC HT-3xFLAG B vector via BamHI/HindIII and BamHI/XhoI sites, respectively.
(§3) For PRMT protein expression in insect cells, recombinant baculovirus (bacmid) was generated using the Bac-to-Bac baculovirus system (Invitrogen). Sf9 cells were transfected with bacmid DNA using X-tremeGENE HP DNA transfection reagent (Sigma-Aldrich) according to the manufacturer's instructions. After 3–5 days, supernatants were collected, filtered, and used to infect Sf9 cells to amplify the virus. After 2 rounds of virus amplification and estimation of the final P3 virus titer, the P3 virus (2–5 μL/10^6 cells) was applied for large-scale infection of 200 × 10^6 Sf9 cells in suspension culture at a density of 1 × 10^6 cells/mL. Cells were harvested 5–6 days post-infection by centrifugation at 500 g for 5 min at room temperature. Protein purification from baculovirus-infected Sf9 cells was performed as previously described. , Cells were lysed in BC buffer (20 mM HEPES pH 7.9, 250 mM NaCl, 10% (v/v) glycerin, 0.4 mM EDTA, 1 mM DTT) containing a protease inhibitor cocktail (Roche) by 3 freeze-thaw cycles. After centrifugation at 11,000 rpm (Sorval SS34 rotor) and 4 °C for 1 h, the supernatant (whole cell protein extract) was incubated with anti-FLAG M2 Affinity Gel (Cytiva) at 4 °C and under agitation for 4 h. Subsequently, beads were washed in BC buffer containing various NaCl concentrations (once in BC with 1 M NaCl, twice in BC with 500 mM NaCl, twice in BC with 250 mM NaCl and twice in BC with 100 mM NaCl). FLAG-tagged proteins were either maintained bead-bound as a 50% (v/v) slurry in BC buffer with 100 mM NaCl and stored at −80 °C or were eluted in the appropriate elution buffer (depending on the subsequent assay) containing 0.25 mg/mL 3xFLAG peptides (Sigma-Aldrich) at 4 °C for 30–45 min. To remove the FLAG-peptides from the eluate, dialysis was performed in elution buffer containing 10% (v/v) glycerol at 4 °C for 4–6 h using Slide-A-Lyzer Dialysis Devices (Thermo Fisher Scientific) according to the manufacturer’s recommendations.
(§4) In the first step, the fluorogenic substrate Nα-Benzoyl-L-arginine-7-amido-4-methylcoumarin (Bz-Arg-AMC, Sigma-Aldrich) undergoes methylation by PRMTs upon the addition of the cofactor SAM. In the second reaction step, trypsin cleaves the nonmethylated substrate, leading to the generation of the 7-amino-4-methylcoumarin product, which can be quantified by subsequent fluorescence measurement (excitation: 355 nm, emission: 460 nm). The first reaction was conducted with bead-bound PRMTs at a total volume of 100 μL. Each condition was performed as a technical triplicate to determine the mean and the standard deviation. […] For the negative controls, SAM was substituted with assay buffer. The incubation was continued at 37 °C and under agitation (1,000 rpm) for a duration of 2 h.

FLAG-tagged PRMT4 = target: T3, FLAG-tagged PRMT4 (Mus musculus, UniProt Q9WVG6); assay: Fluorescence-based in vitro PRMT assay (F-PRMT assay), PRMT4; conditions: for Experimental result (PRMT4): vs solvent control = 100%; for Efficacy ±Δ% (PRMT4): mean % difference of activity vs solvent control (100%), - inhibition, + activation
T3 construct: Full-length FLAG-tagged PRMT protein; made in house; host or cells: Sf9 insect cells (baculovirus)
T3 sequence (Q9WVG6 1-608): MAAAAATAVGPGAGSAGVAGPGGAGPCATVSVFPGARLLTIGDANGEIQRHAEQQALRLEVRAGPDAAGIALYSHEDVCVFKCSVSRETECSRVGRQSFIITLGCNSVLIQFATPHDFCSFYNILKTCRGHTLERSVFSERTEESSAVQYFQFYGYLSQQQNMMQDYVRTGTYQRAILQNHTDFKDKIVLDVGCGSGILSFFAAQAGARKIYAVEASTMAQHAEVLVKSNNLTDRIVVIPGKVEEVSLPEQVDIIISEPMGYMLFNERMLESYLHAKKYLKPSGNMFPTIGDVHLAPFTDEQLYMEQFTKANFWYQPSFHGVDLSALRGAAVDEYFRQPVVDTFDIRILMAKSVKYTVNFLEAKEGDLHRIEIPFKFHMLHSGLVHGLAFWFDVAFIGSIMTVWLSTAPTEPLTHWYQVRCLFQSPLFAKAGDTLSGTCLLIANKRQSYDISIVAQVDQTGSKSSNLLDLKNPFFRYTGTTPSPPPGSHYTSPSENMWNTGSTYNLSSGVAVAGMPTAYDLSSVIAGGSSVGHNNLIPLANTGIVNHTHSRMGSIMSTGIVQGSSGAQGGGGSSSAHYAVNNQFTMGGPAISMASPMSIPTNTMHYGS
From the text: as §1, §2, §3, §4

FLAG-tagged PRMT3 = target: T4, FLAG-tagged PRMT3 (Homo sapiens, UniProt O60678); assay: Fluorescence-based in vitro PRMT assay (F-PRMT assay), PRMT3; conditions: for Experimental result (PRMT3): vs solvent control = 100%
T4 construct: The complete ORFs of human PRMT3 and PRMT6 were inserted; made in house; host or cells: Sf9 insect cells (baculovirus)
T4 sequence (O60678 whole entry): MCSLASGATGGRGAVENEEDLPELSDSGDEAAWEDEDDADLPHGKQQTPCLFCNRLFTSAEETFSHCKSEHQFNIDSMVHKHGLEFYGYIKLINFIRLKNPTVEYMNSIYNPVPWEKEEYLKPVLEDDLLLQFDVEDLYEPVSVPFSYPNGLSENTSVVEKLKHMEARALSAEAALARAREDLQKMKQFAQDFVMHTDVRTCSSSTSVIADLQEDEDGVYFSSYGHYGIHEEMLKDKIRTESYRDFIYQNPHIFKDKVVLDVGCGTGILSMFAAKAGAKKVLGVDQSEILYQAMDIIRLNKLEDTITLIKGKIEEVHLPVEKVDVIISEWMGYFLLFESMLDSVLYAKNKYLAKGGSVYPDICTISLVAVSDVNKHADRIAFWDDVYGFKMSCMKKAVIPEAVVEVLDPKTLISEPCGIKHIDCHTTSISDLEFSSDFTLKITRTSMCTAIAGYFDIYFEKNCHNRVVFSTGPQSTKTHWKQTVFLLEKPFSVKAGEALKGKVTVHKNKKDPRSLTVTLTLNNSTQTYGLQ
From the text: as §1, §2, §3, §4

[1] = Table 1, 100 μM compound, 2 μM PRMT, n = 3, racemates used
[2] = Table 1, 100 μM compound, n = 3
[3] = Table S3, 100 µM compound, mean % difference vs solvent control (100%), n≥3
[4] = Table S2, 100 µM compound, n=3, racemates used

T1 sequence (Q63009 whole entry): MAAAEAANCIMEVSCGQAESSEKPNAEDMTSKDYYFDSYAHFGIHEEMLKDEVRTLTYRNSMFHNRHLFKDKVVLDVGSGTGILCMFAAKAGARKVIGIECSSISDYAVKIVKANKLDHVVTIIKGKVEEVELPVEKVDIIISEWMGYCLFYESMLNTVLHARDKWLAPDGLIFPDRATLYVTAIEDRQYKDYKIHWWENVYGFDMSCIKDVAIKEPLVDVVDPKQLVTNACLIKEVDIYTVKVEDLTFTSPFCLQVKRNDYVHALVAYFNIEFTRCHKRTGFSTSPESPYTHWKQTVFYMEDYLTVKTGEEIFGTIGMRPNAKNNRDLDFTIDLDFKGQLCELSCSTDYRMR

| Compound | Experimental result (PRMT1) (FLAG-tagged PRMT1; [1]) | Experimental result (PRMT6) (FLAG-tagged PRMT6; [1]) | Experimental result (PRMT4) (FLAG-tagged PRMT4; [1]) | Experimental result (PRMT3) (FLAG-tagged PRMT3; [1]) | Experimental result (PRMT4) (FLAG-tagged PRMT4; Table S3, 100 µM compound, n≥3) | other results |
| --- | --- | --- | --- | --- | --- | --- |
| CNCCCNCCc1ccccc1 [Compound K001JS006] | PRMT1 n.e. (Compounds, which did not significantly affect the catalytic activity (less than ±6% change or not significant p-value), are marked with [drawing 8] (no effect)) | PRMT6 i | PRMT4 i | PRMT3 n.e. (Compounds, which did not significantly affect the catalytic activity (less than ±6% change or not significant p-value), are marked with [drawing 8] (no effect)) | – | Efficacy ±Δ% (PRMT4) (FLAG-tagged PRMT4; [2]): -10% |
| NCC(=O)Nc1ccc(NC(=O)c2ccco2)cc1 [Compound K002JS013] | PRMT1 n.e. (Compounds, which did not significantly affect the catalytic activity (less than ±6% change or not significant p-value), are marked with [drawing 8] (no effect)) | PRMT6 i | PRMT4 i | PRMT3 n.e. (Compounds, which did not significantly affect the catalytic activity (less than ±6% change or not significant p-value), are marked with [drawing 8] (no effect)) | – | Efficacy ±Δ% (PRMT6) (FLAG-tagged PRMT6; [2]): -8%; Efficacy ±Δ% (PRMT4) (FLAG-tagged PRMT4; [2]): -50% |
| CN(C)Cc1cccc(N/C=C2\C(=O)NC(=O)c3ccccc32)c1 [TR-010] | – | – | – | – | n.e. (did not significantly affect the catalytic activity (less than ±6% change or not significant p-value), are marked with n.e. (no effect)) | activation at 100 µM (FLAG-tagged PRMT1; 100 μM compound, increase over solvent-treated activity, read-out: enhancement (increase) of PRMT1 enzymatic activity): ≥ 60%; Efficacy ±∆% (PRMT1) (FLAG-tagged PRMT1; [3]): +75%; Experimental result (PRMT6) (FLAG-tagged PRMT6; Table S3, 100 µM compound, n≥3): n.e. (did not significantly affect the catalytic activity (less than ±6% change or not significant p-value), are marked with n.e. (no effect)); Efficacy ±∆% (PRMT3) (FLAG-tagged PRMT3; [3]): +45% |
| O=C(CC1COCCN1)N1CCC(N2CCc3ccccc3C2)CC1 (stereo not drawn) [Compound K002JS014] | PRMT1 n.e. (Compounds, which did not significantly affect the catalytic activity (less than ±6% change or not significant p-value), are marked with [drawing 8] (no effect)) | PRMT6 i | PRMT4 n.e. (Compounds, which did not significantly affect the catalytic activity (less than ±6% change or not significant p-value), are marked with [drawing 8] (no effect)) | PRMT3 n.e. (Compounds, which did not significantly affect the catalytic activity (less than ±6% change or not significant p-value), are marked with [drawing 8] (no effect)) | – | Efficacy ±Δ% (PRMT6) (FLAG-tagged PRMT6; [2]): -8% |
| N=C(N)NCCSCc1cccc2ccccc12 [Compound K001JS010] | PRMT1 i | PRMT6 i | PRMT4 n.e. (Compounds, which did not significantly affect the catalytic activity (less than ±6% change or not significant p-value), are marked with [drawing 8] (no effect)) | PRMT3 n.e. (Compounds, which did not significantly affect the catalytic activity (less than ±6% change or not significant p-value), are marked with [drawing 8] (no effect)) | – | Efficacy ±Δ% (PRMT1) (FLAG-tagged PRMT1; Table 1, 100 μM compound, mean % difference of activity vs solvent control (100%), - inhibition, + activation, n = 3): -20% |
| O=C1NC(=O)c2ccccc2/C1=C/NCc1ccccc1 [TR-03, (Z)-4-[(Benzylamino)methylene]isoquinoline-1,3(2H,4H)-dione] | – | – | – | – | n.e. (did not significantly affect the catalytic activity (less than ±6% change or not significant p-value), are marked with n.e. (no effect)) | effect on PRMT1 activity (in words) (FLAG-tagged PRMT1; 100 μM compound): slight inhibitory effect; Experimental result (PRMT6) (FLAG-tagged PRMT6; Table S3, 100 µM compound, n≥3): n.e. (did not significantly affect the catalytic activity (less than ±6% change or not significant p-value), are marked with n.e. (no effect)); Experimental result (PRMT3) (FLAG-tagged PRMT3; Table S3, 100 µM compound, n≥3): n.e. (did not significantly affect the catalytic activity (less than ±6% change or not significant p-value), are marked with n.e. (no effect)) |
| CNCc1cn(CC2CCN(c3ccc(C(C)=O)cn3)CC2)nn1 [Compound K002JS003] | PRMT1 n.e. (Compounds, which did not significantly affect the catalytic activity (less than ±6% change or not significant p-value), are marked with [drawing 8] (no effect)) | PRMT6 i | PRMT4 n.e. (Compounds, which did not significantly affect the catalytic activity (less than ±6% change or not significant p-value), are marked with [drawing 8] (no effect)) | PRMT3 n.e. (Compounds, which did not significantly affect the catalytic activity (less than ±6% change or not significant p-value), are marked with [drawing 8] (no effect)) | – | – |
| O=c1ccc([N+](=O)[O-])cn1Cc1nccn1Cc1ccccc1 [Compound K001JS009] | – | – | – | – | – | Experimental result (PRMT4) (FLAG-tagged PRMT4; [4]): n.e. (did not significantly affect the catalytic activity of the intended PRMT (less than ±6% change or not significant p-value), are marked with n.e. (no effect)) |
| CO/C=C1/C(=O)NC(=O)c2ccccc21 [TR-02, (E/Z)-4-(Methoxymethylene)isoquinoline-1,3(2H,4H)-dione] | – | – | – | – | n.e. (did not significantly affect the catalytic activity (less than ±6% change or not significant p-value), are marked with n.e. (no effect)) | effect on PRMT1 activity (in words) (FLAG-tagged PRMT1; 100 μM compound): no significant effect; Experimental result (PRMT1) (FLAG-tagged PRMT1; Table S3, 100 µM compound, n≥3): n.e. (did not significantly affect the catalytic activity (less than ±6% change or not significant p-value), are marked with n.e. (no effect)) |
| NCCc1cn2cccc(OCc3ccccc3)c2n1 [Compound K001FT005] | – | – | – | – | – | Experimental result (PRMT4) (FLAG-tagged PRMT4; [4]): n.e. (did not significantly affect the catalytic activity of the intended PRMT (less than ±6% change or not significant p-value), are marked with n.e. (no effect)) |
